Legend:
Type in all cases: cell-based
[1] = Inhibition of hedgehog signaling pathway in mouse Light2 cells in Shh conditioned medium assessed as reduction in GLI1 expression by Western blot analysis
[2] = Inhibition of hedgehog signaling pathway in mouse Light2 cells in Shh conditioned medium assessed as reduction in GLI2 expression by Western blot analysis
[3] = Inhibition of Smo-mediated hedgehog signaling pathway in mouse C3H10T1/2 cells after 6 days by Gli-dependent luciferase reporter gene assay; details: C3H 10T1/2, 144 h
[4] = Inhibition of Smo-mediated hedgehog signaling pathway in mouse Light2 cells in Shh conditioned medium after 48 hrs by Gli-Renilla luciferase reporter gene assay
[5] = Inhibition of hedgehog signaling pathway in mouse Light2 cells in Shh-N conditioned medium after 24 hrs by dual luciferase reporter gene assay

Row | IC50 [3] [nM] | IC50 [4] [nM] | SMILES | also measured
1 | 650 |  | COc1cc(C(=O)NC(=S)Nc2cccc(NC(=O)c3ccccc3)c2)cc(OC)c1OC | 
2 |  | 1400 | Cc1ccc(Cn2ncc3nc(-c4ccc(N5CCN(C(=O)CCc6c[nH]c7ccccc67)CC5)cc4)[nH]c32)cc1 | 
3 |  | 4440 | COc1ccc(/C=C/C(=O)c2cc(OC)c(OC)cc2OC)cc1OC | 
4 | 15 |  | COc1cc(C(=O)NC(=N)Nc2ccc(C)c(NC(=O)c3ccc(-c4ccccc4)cc3)c2)cc(OC)c1OC | 

The remaining lines, values behind:

Row | SMILES | IC50 [3] [nM] | IC50 [4] [nM] | also measured
5 | C[C@@H]1CC[C@@]2(NC1)O[C@H]1C[C@H]3[C@@H]4CC=C5C[C@@H](O[C@@H]6O[C@H](CO)[C@H](O)[C@H](O[C@@H]7O[C@H](CO)[C@@H](O)[C@H](O)[C@H]7O)[C@H]6O[C@@H]6O[C@@H](C)[C@H](O)[C@@H](O)[C@H]6O)CC[C@]5(C)[C@H]4CC[C@]3(C)[C@H]1[C@@H]2C [SOLASONINE] |  |  | IC50 [1]: 2490 nM; IC50 [2]: 2300 nM
6 | CCC(C)n1ncn(-c2ccc(N3CCN(c4ccc(OCC5COC(Cn6cncn6)(c6ccc(Cl)cc6Cl)O5)cc4)CC3)cc2)c1=O (stereo not given) [ITRACONAZOLE] |  | 690 | 
7 | COc1cc(C(=O)NC(=N)Nc2ccc(C)c(NC(=O)c3ccc(CCc4ccccc4)cc3)c2)cc(OC)c1OC | 2.8 |  | 
8 | CC[C@@H](C)C(=O)O[C@@H](C)[C@]1(O)CC[C@@]2(O)[C@]1(C)[C@H](OC(=O)/C=C/c1ccccc1)C[C@@H]1[C@@]3(C)CC[C@H](O)CC3=CC[C@]12O |  |  | IC50 [5]: 3700 nM
9 | CC[C@H](C)C(=O)O[C@@H](C)[C@]1(O)CC[C@@]2(O)[C@]1(C)[C@H](OC(=O)/C=C/c1ccccc1)C[C@@H]1[C@@]3(C)CC[C@H](O)CC3=CC[C@]12O |  |  | IC50 [5]: 2900 nM

From ChEMBL document CHEMBL4265903, “Current trends in Hedgehog signaling pathway inhibition by small molecules” (Bioorg Med Chem Lett, 2018)
